Data published in patent US20100305134A1, “SPECIFIC INHIBITORS OF PTERIDINE REDUCTASE WITH ANTIPARASITIC ACTION” (priority 2007, published 2010).
Read-outs that look alike come from different tables or passages of the source.

Legend:
Lm TS = molecular target: T1, Lm TS (Leishmania major, UniProt P07382); assay: biochemical; format: biochemical
T1 construct: made in house
Method: (§1) The compounds of the invention were tested against the following enzyme library: TcPTR1, LmPTR1, LmDHFR, LcTS, EcTS, CnTS, hTS, DHFR. The proteins were all purified following the known procedures (ref). The enzymes were purified through chromatographic methods that usually require a prepurification step using a ion exchange resin, than the eluted active fractions were pooled and a second purification step follows were a hydrophobic resin and sometimes a gel filtration resin is used as the final step. The protein is characterized using Mass Spectrometry and Specific Activity and concentration is detected. Moreover Km for the substrates is useful to set up the inhibition experiments. In general the protein is stored at −80° C. and defrozen in small quantities when necessary.

LmPTR1 = molecular target: T2, LmPTR1 (Leishmania major, UniProt Q01782); assay: biochemical; format: biochemical; settings: NI means no inhibition at 190 μM; read-out: PTR1 Lm Ki
T2 construct: made in house
T2 sequence (Q01782 1-288): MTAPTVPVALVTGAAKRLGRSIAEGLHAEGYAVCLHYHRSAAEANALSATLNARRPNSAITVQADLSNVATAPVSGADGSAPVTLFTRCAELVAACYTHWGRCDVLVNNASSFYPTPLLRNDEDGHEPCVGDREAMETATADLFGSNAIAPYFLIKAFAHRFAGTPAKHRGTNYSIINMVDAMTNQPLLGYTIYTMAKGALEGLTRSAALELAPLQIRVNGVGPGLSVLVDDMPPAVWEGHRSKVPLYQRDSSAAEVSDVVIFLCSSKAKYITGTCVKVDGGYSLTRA
Method: The compounds of the invention were tested against the following enzyme library: TcPTR1, LmPTR1, LmDHFR, LcTS, EcTS, CnTS, hTS, DHFR.

TcPTR1 = TcPTR1 (Trypanosoma cruzi, UniProt O44029); assay: PTR1 enzyme inhibition (dihydrofolic acid substrate, NADPH cofactor), TcPTR1; format: biochemical
Sequence of TcPTR1 (O44029 entry or part of it): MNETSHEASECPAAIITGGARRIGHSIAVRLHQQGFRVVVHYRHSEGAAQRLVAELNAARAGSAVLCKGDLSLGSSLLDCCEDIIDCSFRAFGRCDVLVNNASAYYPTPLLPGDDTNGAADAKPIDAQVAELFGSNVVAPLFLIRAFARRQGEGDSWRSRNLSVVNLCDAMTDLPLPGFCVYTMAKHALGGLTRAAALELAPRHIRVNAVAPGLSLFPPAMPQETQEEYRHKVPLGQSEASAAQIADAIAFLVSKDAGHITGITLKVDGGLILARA
Method: as §1

LmDHFR = molecular target: T3, LmDHFR (Leishmania major, UniProt P07382); assay: biochemical; settings: NI means no inhibition at 190 μM; read-out: DHFR Lm Ki
T3 construct: made in house
T3 sequence (P07382 whole entry): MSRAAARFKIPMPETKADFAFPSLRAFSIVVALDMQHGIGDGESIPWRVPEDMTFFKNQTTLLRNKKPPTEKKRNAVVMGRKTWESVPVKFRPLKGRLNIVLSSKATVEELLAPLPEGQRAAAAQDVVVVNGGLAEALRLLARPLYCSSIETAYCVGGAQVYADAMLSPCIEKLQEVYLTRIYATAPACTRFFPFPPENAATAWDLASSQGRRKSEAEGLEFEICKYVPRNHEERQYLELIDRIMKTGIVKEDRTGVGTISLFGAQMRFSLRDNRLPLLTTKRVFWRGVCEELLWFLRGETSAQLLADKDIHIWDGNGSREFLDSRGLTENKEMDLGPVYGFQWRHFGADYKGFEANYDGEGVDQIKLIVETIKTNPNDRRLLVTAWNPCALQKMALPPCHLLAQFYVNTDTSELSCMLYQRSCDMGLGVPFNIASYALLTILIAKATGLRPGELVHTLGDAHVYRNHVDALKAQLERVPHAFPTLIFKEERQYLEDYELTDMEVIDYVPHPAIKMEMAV
Method: as §1

h DHFR = molecular target: T4, h DHFR (Homo sapiens, UniProt P00374); assay: DHFR enzyme inhibition (standard DHFR assay), human DHFR; format: biochemical
T4 construct: made in house
T4 sequence (P00374 1-187): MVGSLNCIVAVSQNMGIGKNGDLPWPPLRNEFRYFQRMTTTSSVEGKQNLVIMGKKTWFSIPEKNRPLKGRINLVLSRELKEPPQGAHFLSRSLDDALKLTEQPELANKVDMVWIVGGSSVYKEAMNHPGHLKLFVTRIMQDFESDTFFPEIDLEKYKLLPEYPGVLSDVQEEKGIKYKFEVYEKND
Method: as §1

hTS = molecular target: T5, hTS (Homo sapiens, UniProt P04818); assay: TS enzyme inhibition (standard TS assay), human TS; format: biochemical; settings: NI means no inhibition at 190 μM; read-out: TS h Ki
T5 construct: made in house
T5 sequence (P04818 whole entry): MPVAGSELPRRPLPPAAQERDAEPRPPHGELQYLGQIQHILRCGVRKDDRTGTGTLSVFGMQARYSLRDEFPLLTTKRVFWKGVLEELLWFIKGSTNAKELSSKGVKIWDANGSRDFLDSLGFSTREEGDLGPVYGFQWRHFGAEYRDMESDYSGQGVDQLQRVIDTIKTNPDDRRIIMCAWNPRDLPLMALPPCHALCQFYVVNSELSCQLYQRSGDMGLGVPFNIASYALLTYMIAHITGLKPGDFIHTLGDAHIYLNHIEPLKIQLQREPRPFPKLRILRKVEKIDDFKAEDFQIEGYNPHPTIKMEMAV
Method: as §1

TS = TS enzyme inhibition, three-value table lines (species column not resolvable); format: biochemical; settings: species column (h or Lm) not resolvable; NI means no inhibition at 190 μM, NI marks ⋄ Δ ▴ undefined; read-out: TS Ki (first value of three-value lines)
[1] = tested on: PTR1 overexpressing lines; assay: Parasite growth inhibition, PTR1 overexpressing lines; format: cell-based; settings: ratio of EC50 from PTR1 overexpressing lines to EC50 from WT lines
[2] = tested on: Tripanosoma cruzi amastigote form; assay: Intracellular growth of Tripanosoma cruzi amastigote form; format: cell-based; design: unit of the concentration uncertain; settings: 72 h exposure, control 100
[3] = NI means no inhibition at 190 μM; read-out: TS Lm Ki
[4] = NI means no inhibition at 190 μM, read-out: PTR1 Tc Ki
[5] = NI means no inhibition at 190 μM, read-out: DHFR h Ki

T1 sequence (P07382 whole entry): as the sequence (P07382 whole entry) above

Ki (Lm TS; [3])	Ki (LmPTR1)	Ki (TcPTR1; [4])	Ki (LmDHFR)	Ki (h DHFR; [5])	Ki (hTS)	SMILES	other results
> 190 µM		20 µM	17 µM	54 µM	13 µM	Cc1cc(C(F)(F)F)cc2nc(-c3ccccc3)c(CNc3ccc(C(=O)N4CCC(C(=O)O)CC4)cc3)nc12	
> 190 µM	> 190 µM	38 µM	75 µM	24 µM	15 µM	CCOC(=O)c1nc2ccccc2nc1CNc1ccc(C(=O)N2CCC(C(=O)O)CC2C(=O)O)cc1 (stereo not drawn)	
> 190 µM	> 190 µM	40 µM	88 µM	> 190 µM	13 µM	COC(=O)C1CCN(C(=O)c2ccc(NCc3nc4cc(C(F)(F)F)ccc4nc3-c3ccccc3)cc2)C(C(=O)OC)C1 (stereo not drawn)	
86 µM	6 µM	106 µM	27 µM	> 190 µM	12 µM	CCOC(=O)C1CCCCN1C(=O)c1ccc(NCc2cnc3ccc(C(F)(F)F)cc3n2)cc1 (stereo not drawn)	

The remaining lines, values behind:

SMILES	Ki (Lm TS; [3])	Ki (LmPTR1)	Ki (TcPTR1; [4])	Ki (LmDHFR)	Ki (h DHFR; [5])	Ki (hTS)	other results
COC(=O)C1CCN(C(=O)c2ccc(NCc3cnc4nc(N)nc(C)c4n3)cc2)CC1	> 190 µM	0.1 µM	7 µM	4 µM	10 µM		
O=C(O)C1CCN(C(=O)c2ccc(NCc3cnc4cccc(C(F)(F)F)c4n3)cc2)CC1	> 190 µM	7 µM	75 µM	40 µM	56 µM	41 µM	
COC(=O)C1CCN(C(=O)c2ccc(N(C)Cc3cnc4nc(N)nc(N)c4n3)cc2)CC1							Ki (Lm TS; read-out: TS Lm Ki; NI means no inhibition at 190 μM): > 190 µM; Ki (h DHFR): 0.8 µM
CN(Cc1cnc2nc(N)nc(N)c2n1)c1ccc(C(=O)NC(CCC(=O)O)C(=O)O)cc1 (stereo not drawn)							Ki (TcPTR1): 0.11 µM
COC(=O)C1CCN(C(=O)c2ccc(N(CCO)Cc3cnc4nc(N)nc(N)c4n3)cc2)CC1							Ki (TS): 64.5 µM
CN(Cc1cnc2nc(N)nc(N)c2n1)c1ccc(C(=O)N[C@@H](CCC(=O)O)C(=O)O)cc1 [Mtx, methotrexate]							RDR [1]: 104.1
CCc1nc(N)nc(N)c1-c1ccc(Cl)cc1 [Pyr, pyrimetamine]							RDR [1]: 2.3; % amastigotes (medium value) ([2]; 10 (unit uncertain)): 37.4%; % amastigotes (medium value) ([2]; 20 (unit uncertain)): 26.3%
